Data as given in patent US20200131669A1, “CYCLIC PEPTIDE COMPOUND HAVING HIGH MEMBRANE PERMEABILITY, AND LIBRARY CONTAINING SAME” (Chugai Seiyaku Kabushiki Kaisha, priority 2017, published 2020).
Positions of bridges follow the written chain, without caps; N, C: chain ends. Non-standard residues stand in square brackets, D forms with d. Residues, ends and D or L forms follow the SMILES beside them. *: point of attachment. NMePhe(3-Cl) = CN[C@@H](Cc1cccc(Cl)c1)C(=O)O; NMeF = CN[C@@H](Cc1ccccc1)C(=O)O; 3Pal = N[C@@H](Cc1cccnc1)C(=O)O; NMeD = CN[C@@H](CC(=O)O)C(=O)O; NMeL = CN[C@@H](CC(C)C)C(=O)O; NMeV = CN[C@H](C(=O)O)C(C)C; NMeA = CN[C@@H](C)C(=O)O; Piperidide = C1CCN(*)CC1; Abu = CC[C@H](N)C(=O)O; Sar = CNCC(=O)O; tBu = CC(C)(C)*

Test: Caco-2 membrane permeability, improved method as used in the following Examples (96-well, 20 to 24 h preincubation)
Type: in vitro ADME
Conditions: human, Caco-2, Caco-2 (cm/sec)
Summary of the method: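 Caco-2 monolayers were grown three weeks and preincubated 20–24 h at 37 °C with compound in DMEM+FaSSIF (1% DMSO) apically. The assay then used compound in FaSSIF/HBSS (1% DMSO, pH 6.0) apically and HBSS with 4% BSA (pH 7.4) basally. Basal samples were taken at 180 min for LC/MS, and Papp (cm/sec) was calculated.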

Row | Structure (SMILES) | Papp A→B at 180 min
1 | CC(C)C[C@H]1C(=O)N[C@@H](COC(C)(C)C)C(=O)N(C)[C@@H](Cc2ccccc2)C(=O)N(C)[C@@H](CC(C)C)C(=O)N[C@H](C(=O)N2CCCCC2)CC(=O)N2CCC[C@H]2C(=O)N(C)[C@@H](Cc2cccc(Cl)c2)C(=O)N[C@@H](C(C)C)C(=O)N(C)[C@@H](C(C)C)C(=O)N[C@@H]([C@@H](C)O)C(=O)N(C)CC(=O)N1C [pd156] (P[NMePhe(3-Cl)]V[NMeV]T[Sar][NMeL]S(tBu)[NMeF][NMeL]D-Piperidide; lactam N-11) | 2.9 ×10⁻⁶ cm/s
2 | CC(C)C[C@@H]1NC(=O)[C@H](Cc2cccc(Cl)c2)N(C)C(=O)[C@@H](C)NC(=O)C[C@@H](C(=O)N2CCCCC2)NC(=O)[C@H](CC(C)C)N(C)C(=O)[C@H](Cc2ccccc2)N(C)C(=O)[C@H](COC(C)(C)C)NC(=O)[C@H](C(C)C)N(C)C(=O)CN(C)C(=O)[C@H]([C@@H](C)O)NC(=O)[C@H](CC(C)C)N(C)C1=O [pd157] ([dA][NMePhe(3-Cl)]L[NMeL]T[Sar][NMeV]S(tBu)[NMeF][NMeL]D-Piperidide; lactam N-11) | 2.2 ×10⁻⁶ cm/s
3 | CC[C@H](C)[C@@H]1NC(=O)[C@H](Cc2ccccc2)N(C)C(=O)CN(C)C(=O)C[C@@H](C(=O)N2CCCCC2)NC(=O)[C@H](C(C)C)N(C)C(=O)[C@H](COC(C)(C)C)NC(=O)[C@H](CC(C)C)N(C)C(=O)[C@H](Cc2cccc(Cl)c2)N(C)C(=O)CN(C)C(=O)[C@H]([C@@H](C)O)NC(=O)[C@H](CC(C)C)N(C)C1=O [pd158] ([Sar][NMeF]I[NMeL]T[Sar][NMePhe(3-Cl)][NMeL]S(tBu)[NMeV]D-Piperidide; lactam N-11) | 1.4 ×10⁻⁶ cm/s
4 | CC(C)C[C@H]1C(=O)N[C@@H](COC(C)(C)C)C(=O)N(C)[C@@H](Cc2ccccc2)C(=O)N(C)[C@@H](CC(C)C)C(=O)N(C)[C@H](C(=O)N2CCCCC2)CC(=O)N[C@H](C)C(=O)N(C)[C@@H](Cc2cccc(Cl)c2)C(=O)N[C@@H](C(C)C)C(=O)N(C)[C@@H](C(C)C)C(=O)N[C@@H]([C@@H](C)O)C(=O)N(C)CC(=O)N1C [pd159] ([dA][NMePhe(3-Cl)]V[NMeV]T[Sar][NMeL]S(tBu)[NMeF][NMeL][NMeD]-Piperidide; lactam N-11) | 1.8 ×10⁻⁶ cm/s
5 | CC(C)C[C@H]1C(=O)N[C@@H](COC(C)(C)C)C(=O)N(C)[C@@H](Cc2ccccc2)C(=O)N(C)[C@@H](CC(C)C)C(=O)N(C)[C@H](C(=O)N2CCCCC2)CC(=O)N[C@@H](C)C(=O)N(C)[C@@H](Cc2cccc(Cl)c2)C(=O)N[C@@H](C(C)C)C(=O)N(C)[C@@H](C(C)C)C(=O)N[C@@H]([C@@H](C)O)C(=O)N(C)CC(=O)N1C [pd160] (A[NMePhe(3-Cl)]V[NMeV]T[Sar][NMeL]S(tBu)[NMeF][NMeL][NMeD]-Piperidide; lactam N-11) | 3.4 ×10⁻⁶ cm/s
6 | CC(C)C[C@@H]1NC(=O)[C@H](C)N(C)C(=O)C[C@@H](C(=O)N2CCCCC2)NC(=O)[C@H](CC(C)C)N(C)C(=O)CN(C)C(=O)[C@H]([C@@H](C)O)NC(=O)[C@H](CC(C)C)N(C)C(=O)[C@H](Cc2cccc(Cl)c2)N(C)C(=O)[C@H](C)NC(=O)[C@H](Cc2ccccc2)N(C)C(=O)[C@H](CC(C)C)N(C)C1=O [pd161] ([NMeA]L[NMeL][NMeF]A[NMePhe(3-Cl)][NMeL]T[Sar][NMeL]D-Piperidide; lactam N-11) | 1.4 ×10⁻⁶ cm/s
7 | CC[C@@H]1NC(=O)[C@H](C(C)C)N(C)C(=O)[C@@H](C(C)C)NC(=O)C[C@@H](C(=O)N2CCCCC2)NC(=O)[C@H](CC(C)C)N(C)C(=O)[C@H](Cc2cccc(Cl)c2)N(C)C(=O)[C@H](COC(C)(C)C)NC(=O)[C@H](CC(C)C)N(C)C(=O)CN(C)C(=O)[C@H](Cc2cccnc2)NC(=O)[C@H](CC(C)C)N(C)C1=O [pd164] ([dV][NMeV][Abu][NMeL][3Pal][Sar][NMeL]S(tBu)[NMePhe(3-Cl)][NMeL]D-Piperidide; lactam N-11) | 1.6 ×10⁻⁶ cm/s
